Assay [1] concerns the target Myosin light chain kinase, smooth muscle (Homo sapiens, UniProt Q15746). Put plainly: Selectivity interaction (LanthaScreen Eu Kinase Binding Assay) EUB0001632a MYLK. The settings on record: at 10 µM.
Assay [2] concerns the target Cyclin-dependent kinase 17 (Homo sapiens) (UniProt Q00537). As to conditions: at 10 µM.
The target in assay [3] is Tyrosine-protein kinase SYK (Homo sapiens, UniProt P43405). Put plainly: Selectivity interaction (ActivX KiNativ screen (ex vivo kinase selectivity in human PBMCs)) EUB0001619a SYK. It is filed as cell-based. As to conditions: PBMC, at 1 µM.
Assay [4] has as its target T1, Beta-adrenergic receptor kinase 1 (Homo sapiens) (UniProt P25098).
T1 sequence (whole entry): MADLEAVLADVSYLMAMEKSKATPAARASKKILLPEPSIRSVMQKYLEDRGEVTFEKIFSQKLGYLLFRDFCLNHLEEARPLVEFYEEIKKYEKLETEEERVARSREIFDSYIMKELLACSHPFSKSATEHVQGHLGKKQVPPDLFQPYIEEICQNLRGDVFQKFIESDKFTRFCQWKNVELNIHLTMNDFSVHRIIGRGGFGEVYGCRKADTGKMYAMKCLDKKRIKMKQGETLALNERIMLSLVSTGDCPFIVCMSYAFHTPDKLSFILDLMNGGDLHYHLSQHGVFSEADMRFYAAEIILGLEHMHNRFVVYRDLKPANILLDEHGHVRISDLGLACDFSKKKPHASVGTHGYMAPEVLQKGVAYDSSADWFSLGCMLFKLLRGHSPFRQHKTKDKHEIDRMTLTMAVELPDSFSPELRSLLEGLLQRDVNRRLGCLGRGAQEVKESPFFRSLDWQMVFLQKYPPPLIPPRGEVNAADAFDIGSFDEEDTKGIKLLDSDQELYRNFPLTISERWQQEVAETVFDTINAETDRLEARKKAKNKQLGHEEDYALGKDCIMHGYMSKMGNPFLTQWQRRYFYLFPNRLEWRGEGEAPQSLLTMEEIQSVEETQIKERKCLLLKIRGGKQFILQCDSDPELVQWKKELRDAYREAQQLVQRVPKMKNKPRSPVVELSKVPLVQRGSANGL
Put plainly: Selectivity interaction (ProQinase) EUB0000171b ADRBK1.

For assay [5], the target named is Proto-oncogene tyrosine-protein kinase ROS (Homo sapiens) (UniProt P08922). As to the kind of experiment: Selectivity interaction (Ambit KINOMEscan and KiNATiv profiling in Jurkat cells) EUB0000090b ROS1. In kind it is cell-based. The settings on record: at 1 µM.
The target in assay [6] is 5'-AMP-activated protein kinase catalytic subunit alpha-1 (Homo sapiens, UniProt Q13131). Put plainly: Selectivity interaction (KinomeScan (DiscoverX)) EUB0001049a PRKAA1. As to conditions: at 1 µM.
Assay [7] deals with Nucleosome-remodeling factor subunit BPTF (Homo sapiens, UniProt Q12830). Put plainly: Selectivity interaction (Bromodomain panel (DSF asssay)) EUB0000270b BPTF.
Assay [8] deals with High affinity nerve growth factor receptor (Homo sapiens, UniProt P04629). As to the kind of experiment: Selectivity interaction (KinomeScan (DiscoverX)) EUB0000618a NTRK1. The settings on record: at 10 µM.
Assay [9] concerns the target Serine/threonine-protein kinase PAK 3 (Homo sapiens) (UniProt O75914). As to the kind of experiment: Selectivity interaction (KinomeScan (DiscoverX)) EUB0000092b PAK3. The settings on record: at 10 µM.
Assay [10] deals with PH-interacting protein (Homo sapiens) (UniProt Q8WWQ0). Put plainly: Selectivity interaction (Human bromodomain panel (DSF assay)) EUB0000233b PHIP.
The target of assay [11] is Protein-arginine deiminase type-4 (Homo sapiens, UniProt Q9UM07). As to the kind of experiment: Selectivity interaction (Fluorescence polarization ligand binding assay (2 mM calcium)) EUB0000266bCl PADI4.
The target of assay [12] is T2, Mitogen-activated protein kinase kinase kinase 15 (Homo sapiens) (UniProt Q6ZN16).
T2 sequence (whole entry): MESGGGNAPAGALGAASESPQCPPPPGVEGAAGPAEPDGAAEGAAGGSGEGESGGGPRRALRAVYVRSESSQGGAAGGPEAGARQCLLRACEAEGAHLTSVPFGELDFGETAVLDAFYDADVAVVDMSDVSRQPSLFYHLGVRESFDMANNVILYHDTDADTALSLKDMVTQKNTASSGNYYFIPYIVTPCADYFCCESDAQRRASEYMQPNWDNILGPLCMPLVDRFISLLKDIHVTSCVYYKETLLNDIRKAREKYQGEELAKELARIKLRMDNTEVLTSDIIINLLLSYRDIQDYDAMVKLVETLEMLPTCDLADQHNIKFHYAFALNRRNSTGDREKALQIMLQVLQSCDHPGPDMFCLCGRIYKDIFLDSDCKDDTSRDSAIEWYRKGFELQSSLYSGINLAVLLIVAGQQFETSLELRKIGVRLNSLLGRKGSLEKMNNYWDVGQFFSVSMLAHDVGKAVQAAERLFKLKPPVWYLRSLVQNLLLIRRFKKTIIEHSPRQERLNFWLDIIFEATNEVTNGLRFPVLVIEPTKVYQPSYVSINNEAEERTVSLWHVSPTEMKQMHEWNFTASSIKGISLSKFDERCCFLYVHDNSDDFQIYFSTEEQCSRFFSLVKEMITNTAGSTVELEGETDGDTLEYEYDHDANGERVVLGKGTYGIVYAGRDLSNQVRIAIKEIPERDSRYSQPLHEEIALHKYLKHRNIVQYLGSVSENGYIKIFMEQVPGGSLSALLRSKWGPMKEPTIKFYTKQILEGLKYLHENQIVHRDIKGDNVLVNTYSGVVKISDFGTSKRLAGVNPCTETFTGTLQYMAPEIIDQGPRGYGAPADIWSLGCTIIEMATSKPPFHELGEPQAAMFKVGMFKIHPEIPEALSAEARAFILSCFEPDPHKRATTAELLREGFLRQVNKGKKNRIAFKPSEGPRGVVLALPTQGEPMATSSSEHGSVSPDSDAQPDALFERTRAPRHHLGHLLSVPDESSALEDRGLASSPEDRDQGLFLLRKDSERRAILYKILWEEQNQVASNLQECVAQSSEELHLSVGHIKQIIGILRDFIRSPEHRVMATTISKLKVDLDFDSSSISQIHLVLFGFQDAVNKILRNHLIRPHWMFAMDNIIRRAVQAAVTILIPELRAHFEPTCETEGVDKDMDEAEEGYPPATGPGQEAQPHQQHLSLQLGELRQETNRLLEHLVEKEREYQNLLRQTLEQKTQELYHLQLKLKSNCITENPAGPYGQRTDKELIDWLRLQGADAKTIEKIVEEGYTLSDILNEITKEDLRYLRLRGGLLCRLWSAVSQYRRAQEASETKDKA
Put plainly: Selectivity interaction (KinomeScan (DiscoverX)) EUB0000229b MAP3K15. As to conditions: at 10 µM.

These results are taken from ChEMBL document CHEMBL5465560, “Selectivity Literature for EUbOPEN Chemogenomic Library” (2024).

Chain of High affinity nerve growth factor receptor (P04629 33-796 limits assumed): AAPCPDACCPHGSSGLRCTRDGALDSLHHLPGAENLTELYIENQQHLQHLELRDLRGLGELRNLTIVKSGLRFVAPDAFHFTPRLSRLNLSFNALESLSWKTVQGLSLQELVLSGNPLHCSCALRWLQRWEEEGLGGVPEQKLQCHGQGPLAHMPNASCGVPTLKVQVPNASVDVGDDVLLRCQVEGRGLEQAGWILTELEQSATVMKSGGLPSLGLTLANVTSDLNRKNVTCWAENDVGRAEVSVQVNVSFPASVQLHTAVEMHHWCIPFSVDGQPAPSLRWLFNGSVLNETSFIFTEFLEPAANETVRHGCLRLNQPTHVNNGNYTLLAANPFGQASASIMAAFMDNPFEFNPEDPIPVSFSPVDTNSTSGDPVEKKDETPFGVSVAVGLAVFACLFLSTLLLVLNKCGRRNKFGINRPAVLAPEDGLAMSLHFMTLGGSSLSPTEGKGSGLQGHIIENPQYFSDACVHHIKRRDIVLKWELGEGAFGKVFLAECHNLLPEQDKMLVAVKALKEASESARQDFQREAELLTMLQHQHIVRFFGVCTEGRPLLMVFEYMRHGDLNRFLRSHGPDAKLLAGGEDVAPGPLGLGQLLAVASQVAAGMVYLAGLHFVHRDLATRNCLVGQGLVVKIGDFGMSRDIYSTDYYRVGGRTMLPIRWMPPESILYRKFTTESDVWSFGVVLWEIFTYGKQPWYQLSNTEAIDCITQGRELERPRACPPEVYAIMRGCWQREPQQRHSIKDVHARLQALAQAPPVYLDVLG
Chain of Protein-arginine deiminase type-4 (Q9UM07 whole entry): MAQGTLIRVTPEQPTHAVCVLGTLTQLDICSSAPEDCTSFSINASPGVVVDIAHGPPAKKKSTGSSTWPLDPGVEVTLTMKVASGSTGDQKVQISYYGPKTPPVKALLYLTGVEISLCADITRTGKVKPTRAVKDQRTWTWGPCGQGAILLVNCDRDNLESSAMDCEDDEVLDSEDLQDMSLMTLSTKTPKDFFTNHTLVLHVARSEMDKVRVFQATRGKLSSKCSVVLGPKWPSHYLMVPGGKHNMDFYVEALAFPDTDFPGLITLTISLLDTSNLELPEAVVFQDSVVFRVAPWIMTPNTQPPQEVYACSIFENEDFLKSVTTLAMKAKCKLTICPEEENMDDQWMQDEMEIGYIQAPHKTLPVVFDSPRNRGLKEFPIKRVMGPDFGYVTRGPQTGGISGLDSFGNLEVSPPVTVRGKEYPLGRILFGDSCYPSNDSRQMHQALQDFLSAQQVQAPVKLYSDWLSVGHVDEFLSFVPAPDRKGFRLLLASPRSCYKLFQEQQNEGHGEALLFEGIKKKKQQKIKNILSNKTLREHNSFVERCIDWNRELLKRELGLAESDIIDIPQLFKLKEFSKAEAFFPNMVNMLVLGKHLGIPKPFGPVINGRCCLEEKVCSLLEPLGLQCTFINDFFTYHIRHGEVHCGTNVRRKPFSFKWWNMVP
Chain of Serine/threonine-protein kinase PAK 3 (Homo sapiens) (O75914 whole entry, looked up): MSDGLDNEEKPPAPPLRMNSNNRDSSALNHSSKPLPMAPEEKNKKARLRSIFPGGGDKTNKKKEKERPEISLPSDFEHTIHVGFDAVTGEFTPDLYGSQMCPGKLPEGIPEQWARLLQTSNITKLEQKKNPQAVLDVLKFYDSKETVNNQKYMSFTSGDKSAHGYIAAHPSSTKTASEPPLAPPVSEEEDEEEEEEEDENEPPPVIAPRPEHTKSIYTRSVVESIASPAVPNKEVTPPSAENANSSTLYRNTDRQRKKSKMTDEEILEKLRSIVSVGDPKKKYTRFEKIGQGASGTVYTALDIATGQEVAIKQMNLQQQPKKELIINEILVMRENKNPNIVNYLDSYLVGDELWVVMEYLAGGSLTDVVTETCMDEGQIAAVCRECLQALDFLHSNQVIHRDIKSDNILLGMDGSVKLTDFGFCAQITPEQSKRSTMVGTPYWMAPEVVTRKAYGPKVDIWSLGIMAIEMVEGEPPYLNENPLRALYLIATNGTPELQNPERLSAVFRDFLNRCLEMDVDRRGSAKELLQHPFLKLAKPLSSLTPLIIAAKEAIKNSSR
Chain of Myosin light chain kinase, smooth muscle (Q15746 whole entry): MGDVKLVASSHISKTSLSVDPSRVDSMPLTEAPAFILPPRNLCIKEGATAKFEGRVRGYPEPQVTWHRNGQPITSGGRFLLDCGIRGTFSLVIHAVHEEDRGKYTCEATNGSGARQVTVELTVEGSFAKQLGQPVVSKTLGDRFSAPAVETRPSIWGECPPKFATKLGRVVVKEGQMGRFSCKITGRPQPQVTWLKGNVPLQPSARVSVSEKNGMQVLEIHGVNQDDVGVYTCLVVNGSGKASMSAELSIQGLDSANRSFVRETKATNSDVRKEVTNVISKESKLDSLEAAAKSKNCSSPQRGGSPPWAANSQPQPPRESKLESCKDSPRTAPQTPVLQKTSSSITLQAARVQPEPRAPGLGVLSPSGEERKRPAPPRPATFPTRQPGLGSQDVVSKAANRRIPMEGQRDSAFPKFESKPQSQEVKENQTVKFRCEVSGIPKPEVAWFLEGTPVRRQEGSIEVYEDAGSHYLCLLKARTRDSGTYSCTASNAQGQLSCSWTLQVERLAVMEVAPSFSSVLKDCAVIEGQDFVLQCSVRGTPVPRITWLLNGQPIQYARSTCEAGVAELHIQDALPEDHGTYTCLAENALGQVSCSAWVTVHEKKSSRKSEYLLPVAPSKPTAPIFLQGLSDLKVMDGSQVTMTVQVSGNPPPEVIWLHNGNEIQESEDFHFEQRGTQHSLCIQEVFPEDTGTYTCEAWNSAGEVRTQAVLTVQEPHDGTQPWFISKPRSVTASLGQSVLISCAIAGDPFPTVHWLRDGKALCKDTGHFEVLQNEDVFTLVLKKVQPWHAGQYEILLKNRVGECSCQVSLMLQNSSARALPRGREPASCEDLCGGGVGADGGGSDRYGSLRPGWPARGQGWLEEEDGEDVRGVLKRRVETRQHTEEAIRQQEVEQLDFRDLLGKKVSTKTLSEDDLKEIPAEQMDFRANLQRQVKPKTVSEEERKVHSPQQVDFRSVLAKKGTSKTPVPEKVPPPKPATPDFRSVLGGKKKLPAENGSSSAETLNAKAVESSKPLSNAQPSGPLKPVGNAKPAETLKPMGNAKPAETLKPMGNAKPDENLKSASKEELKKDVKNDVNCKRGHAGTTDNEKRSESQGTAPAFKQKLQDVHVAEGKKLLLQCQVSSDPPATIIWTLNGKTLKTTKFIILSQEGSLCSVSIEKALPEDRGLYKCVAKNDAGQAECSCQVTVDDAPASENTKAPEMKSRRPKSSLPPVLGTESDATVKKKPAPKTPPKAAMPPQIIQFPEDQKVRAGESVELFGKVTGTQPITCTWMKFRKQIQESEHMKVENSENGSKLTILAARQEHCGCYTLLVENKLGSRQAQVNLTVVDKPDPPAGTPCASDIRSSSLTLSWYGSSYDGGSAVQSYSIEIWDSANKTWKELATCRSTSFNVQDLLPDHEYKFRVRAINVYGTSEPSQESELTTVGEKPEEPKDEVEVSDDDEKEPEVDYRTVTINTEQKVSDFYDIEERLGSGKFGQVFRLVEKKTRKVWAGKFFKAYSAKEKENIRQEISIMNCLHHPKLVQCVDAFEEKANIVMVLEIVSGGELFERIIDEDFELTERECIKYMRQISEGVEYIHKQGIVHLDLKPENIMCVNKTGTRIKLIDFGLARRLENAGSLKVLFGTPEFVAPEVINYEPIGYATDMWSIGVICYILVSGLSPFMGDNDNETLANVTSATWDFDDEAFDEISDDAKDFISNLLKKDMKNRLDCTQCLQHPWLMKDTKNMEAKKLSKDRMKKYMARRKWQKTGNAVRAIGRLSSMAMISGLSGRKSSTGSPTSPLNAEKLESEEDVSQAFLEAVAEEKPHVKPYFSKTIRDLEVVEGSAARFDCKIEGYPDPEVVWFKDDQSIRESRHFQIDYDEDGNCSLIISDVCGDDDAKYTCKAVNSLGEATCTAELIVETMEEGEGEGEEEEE
Chain of Cyclin-dependent kinase 17 (Homo sapiens) (Q00537 whole entry, looked up): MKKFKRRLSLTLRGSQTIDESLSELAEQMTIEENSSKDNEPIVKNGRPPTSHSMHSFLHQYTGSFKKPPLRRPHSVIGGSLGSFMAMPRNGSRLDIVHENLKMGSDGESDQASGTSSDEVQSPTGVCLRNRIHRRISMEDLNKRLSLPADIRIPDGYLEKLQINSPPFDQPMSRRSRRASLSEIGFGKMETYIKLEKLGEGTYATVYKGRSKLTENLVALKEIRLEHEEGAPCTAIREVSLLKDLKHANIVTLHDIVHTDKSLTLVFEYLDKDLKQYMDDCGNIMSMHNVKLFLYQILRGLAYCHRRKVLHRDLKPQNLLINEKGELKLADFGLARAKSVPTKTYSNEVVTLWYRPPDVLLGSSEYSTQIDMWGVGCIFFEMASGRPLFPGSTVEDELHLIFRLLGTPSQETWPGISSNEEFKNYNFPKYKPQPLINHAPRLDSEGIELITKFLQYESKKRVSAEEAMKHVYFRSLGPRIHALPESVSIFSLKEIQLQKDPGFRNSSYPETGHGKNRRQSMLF
Chain of 5'-AMP-activated protein kinase catalytic subunit alpha-1 (Q13131 whole entry, looked up): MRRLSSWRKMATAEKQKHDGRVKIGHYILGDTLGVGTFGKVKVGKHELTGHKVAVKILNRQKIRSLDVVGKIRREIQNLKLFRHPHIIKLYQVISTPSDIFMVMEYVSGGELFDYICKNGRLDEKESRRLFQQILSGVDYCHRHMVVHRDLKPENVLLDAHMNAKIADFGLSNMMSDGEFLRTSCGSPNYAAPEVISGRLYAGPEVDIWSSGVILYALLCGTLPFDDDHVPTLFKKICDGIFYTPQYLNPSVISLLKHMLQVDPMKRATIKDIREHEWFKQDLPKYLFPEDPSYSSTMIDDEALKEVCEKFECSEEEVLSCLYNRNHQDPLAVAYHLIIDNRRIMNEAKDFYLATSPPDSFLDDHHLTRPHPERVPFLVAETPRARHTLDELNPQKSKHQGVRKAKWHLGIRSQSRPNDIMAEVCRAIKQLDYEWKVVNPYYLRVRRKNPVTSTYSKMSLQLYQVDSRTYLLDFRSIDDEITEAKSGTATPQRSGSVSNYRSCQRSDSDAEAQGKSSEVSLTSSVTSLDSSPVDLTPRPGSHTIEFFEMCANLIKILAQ

With `Cn1cc(-n2cnc3c(NCc4nc5cc(Cl)c(Cl)cc5[nH]4)nc(N4CCOCC4)nc32)cn1`, in [1], the % of inhibition is -1.03%. In turn, `COCC(=O)NC/C=C/c1ccc2ncnc(Nc3ccc(Oc4ccc(C)nc4)c(C)c3)c2c1` [CP-724714] displayed a % of control in assay [2] of 100%. Regarding `N#Cc1cccc(-c2c[nH]c3ncnc(N4CCOCC4)c23)c1`, the % of inhibition in assay [3] came to 1%.

On to `C=CC(=O)Nc1cccc(C(=O)Nc2ccc(Nc3cc(-c4[nH]c(SC)nc4C)ccn3)cc2)c1`, for which the % of control in assay [4] (at 1 µM) was 101%; in assay [4] (at 5 µM), 88%. For `CN(C)C/C=C/C(=O)Nc1ccc(C(=O)N2CCCC(Nc3ncc(Cl)c(-c4c[nH]c5ccccc45)n3)C2)cc1` (stereo not drawn), the % of control in assay [5] turned out to be 85%. Consider `COc1cc(Nc2nc(C)cc(-c3cnn4nc(OC)ccc34)n2)cc(C(F)(F)F)c1`, for which the % of control in [6] worked out at 87%. With `Cc1cc(CN)cc(C)c1-c1ncn(C)c1-c1cncn1C`, the dTM in assay [7] was -2.3 K. In the case of `O[C@H]1CC[C@H](Nc2ncc3nc(Nc4c(F)cc(F)cc4F)n([C@H]4CCOC4)c3n2)CC1`, the % of control in assay [8] is 75%. Turning to `CCC(=O)N1CCN(c2ccc(-n3c(=O)ccc4cnc5ccc(-c6cnc7ccccc7c6)cc5c43)cc2C(F)(F)F)CC1`, the % of control in [9] was found to be 100%.

For the compound `CN(C)CCCOc1ccc(-c2cc(NCCCn3cccn3)nc(S(C)(=O)=O)n2)cc1`, the dTM in [10] was less than 2 K. In general, IC50 refers to the point on the concentration scale where inhibition reaches its midpoint. In the case of `CCn1c(-c2nc3cc(C(=O)N4CCCC(N)C4)ccc3n2C)cc2ccccc21` (stereo not drawn), the IC50 in [11] came to 250 nM. In [12], `COc1cc(N(C)c2ccnc3ccc(C(F)(F)F)cc23)cc(OC)c1OC` registered a % binding of 100%.
